Source: US20060241172A1, “Benzodioxane and benzodioxolane derivatives and uses thereof” (Wyeth, priority 2005, published 2006)

Columns and labels:
[1] = molecular target: T1, human 5-hydroxytryptamine-2C (h5-HT2C) receptor (Homo sapiens, UniProt P28335); assay: 5-HT2C binding: [125I]DOI displacement in membranes of transfected CHO cells; settings: read-out: 5-HT2C Binding Ki avg
T1 construct: expressed in transfected cells; host or cells: CHO (Chinese Hamster Ovary) cells; membranes
T1 sequence (P28335 33-458): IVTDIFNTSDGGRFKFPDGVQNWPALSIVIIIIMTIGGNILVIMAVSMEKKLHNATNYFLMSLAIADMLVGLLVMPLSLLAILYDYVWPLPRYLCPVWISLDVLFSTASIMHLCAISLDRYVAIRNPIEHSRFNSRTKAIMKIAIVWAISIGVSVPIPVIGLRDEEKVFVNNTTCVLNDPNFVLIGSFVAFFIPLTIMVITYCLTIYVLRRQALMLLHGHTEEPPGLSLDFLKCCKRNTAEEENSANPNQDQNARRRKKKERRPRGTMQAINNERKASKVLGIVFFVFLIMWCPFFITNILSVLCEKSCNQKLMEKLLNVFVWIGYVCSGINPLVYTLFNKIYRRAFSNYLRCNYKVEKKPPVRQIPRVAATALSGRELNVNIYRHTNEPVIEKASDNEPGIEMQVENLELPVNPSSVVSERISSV

human 5-HT2C receptor = molecular target: T2, human 5-HT2C receptor (Homo sapiens, UniProt P28335); assay: 5-HT2C receptor-stimulated calcium mobilization (FLIPR) in CHO cells; format: cell-based; settings: for Emax: CHO, read-out: 5-HT2C Function EMax (%); for EC50: read-out: 5-HT2C Function EC50
T2 sequence (P28335 33-458): T1 sequence (P28335 33-458)

[2] = tested on: male C57BL/6J mice and lean Zucker rats; assay: Obesity Model A: acute food intake after overnight fast, oral dosing; format: in vivo
Method: To evaluate acute in vivo efficacy of various compounds, 7 weeks-old male C57BL/6J mice were obtained from The Jackson Laboratory (Bar Harbor, Me.) and 6 weeks-old lean Zucker rats were purchased from Charles River Laboratories (Wilmington, Mass.). Mice and rats were single housed in a temperature-controlled (25° C.) facility with a 12-h light/dark cycle. Animals were allowed normal chow diet (Rodent chow #5001, PharmaServ, Framingham, Mass.) and water ad libitum. After one week acclimation, animals were randomized to vehicle (saline) or treatment groups. Animals were fasted overnight (16 hrs) and orally dosed with vehicle or compounds. Thirty minutes after compound administration, animals were given a weighed amount of food, and food intake was recorded 30 minutes, 1 h, 2 h, 4 h, 7 h and 24 h after refeeding.

[3] = molecular target: T3, human serotonin 5-HT2C receptor (Homo sapiens, UniProt P28335); assay: Saturation binding of [125I] DOI; settings: saturation binding with increasing concentrations of [125I] DOI; read-out: dissociation constant, KD
T3 construct: expressed in transfected cells; host or cells: CHO (Chinese Hamster Ovary) cells; membranes
T3 sequence (P28335 33-458): T1 sequence (P28335 33-458)
Method: DOI. The reaction was initiated by the final addition of 100 μL of tissue suspension containing 50 μg of receptor protein. […] Test compounds were added in 20.0 μL. The mixture was incubated at room temperature for 60 min. The incubation was stopped by rapid filtration. The bound ligand-receptor complex was filtered off on a 96 well unifilter with a Packard® Filtermate 196 Harvester. The bound complex caught on the filter disk was dried in a vacuum oven heated to 60° C. and the radioactivity measured by liquid scintillation with 40 μL Microscint-20 scintillant in a Packard TopCount® equipped with six (6) photomultiplier detectors.

[4] = 10 mpk oral, 0.5 hour after refeeding
[5] = 10 mpk oral, 2 hours after refeeding
[6] = 10 mpk oral, 4 hours after refeeding
[7] = 30 mpk oral, 0.5 hour after refeeding
[8] = 30 mpk oral, 2 hours after refeeding
[9] = 30 mpk oral, 4 hours after refeeding
[10] = 50 mpk oral, 0.5 hour after refeeding
[11] = 50 mpk oral, 2 hours after refeeding
[12] = 50 mpk oral, 4 hours after refeeding

| Compound | Ki [1] | Emax (human 5-HT2C receptor) | EC50 (human 5-HT2C receptor) | other results |
| --- | --- | --- | --- | --- |
| NCC1COc2cccc(-c3ccccc3Cl)c2O1 (stereo not shown) [Compound I-1, {[8-(2-Chlorophenyl)-2,3-dihydro-1,4-benzodioxin-2-yl]methyl}amine] | < 50 nM | 60% | < 100 nM | % Reduction food intake (vs vehicle) [2, 4]: 4 ± 8%; % Reduction food intake (vs vehicle) [2, 5]: 6 ± 8%; % Reduction food intake (vs vehicle) [2, 6]: 16 ± 8%; % Reduction food intake (vs vehicle) [2, 7]: 60 ± 12%; % Reduction food intake (vs vehicle) [2, 8]: 40 ± 8%; % Reduction food intake (vs vehicle) [2, 9]: 42 ± 5%; % Reduction food intake (vs vehicle) [2, 10]: 74 ± 17%; % Reduction food intake (vs vehicle) [2, 11]: 55 ± 13%; % Reduction food intake (vs vehicle) [2, 12]: 48 ± 13% |
| NCC1COc2cccc(-c3ccccc3C(F)(F)F)c2O1 (stereo not shown) [Compound I-4, ({8-[2-(Trifluoromethyl)phenyl]-2,3-dihydro-1,4-benzodioxin-2-yl}methyl)amine] | < 50 nM | 70% | < 100 nM | % Reduction food intake (vs vehicle) [2, 4]: 9 ± 6%; % Reduction food intake (vs vehicle) [2, 5]: 5 ± 8%; % Reduction food intake (vs vehicle) [2, 6]: 2 ± 7%; % Reduction food intake (vs vehicle) [2, 7]: 29 ± 7%; % Reduction food intake (vs vehicle) [2, 8]: 14 ± 8%; % Reduction food intake (vs vehicle) [2, 9]: 0 ± 16%; % Reduction food intake (vs vehicle) [2, 10]: 56 ± 10%; % Reduction food intake (vs vehicle) [2, 11]: 27 ± 11%; % Reduction food intake (vs vehicle) [2, 12]: 8 ± 14% |
| NC[C@H]1COc2cccc(-c3c(Cl)cccc3Cl)c2O1 [Compound I-46, {[(2S)-8-(2,6-Dichlorophenyl)-2,3-dihydro-1,4-benzodioxin-2-yl]methyl}amine] | < 50 nM | 50% | < 100 nM | % Reduction food intake (vs vehicle) ([2]; 1 mpk oral, 0.5 hour after refeeding): 0 ± 12%; % Reduction food intake (vs vehicle) ([2]; 1 mpk oral, 2 hours after refeeding): 0 ± 6%; % Reduction food intake (vs vehicle) ([2]; 1 mpk oral, 4 hours after refeeding): 1 ± 8%; % Reduction food intake (vs vehicle) ([2]; 3 mpk oral, 0.5 hour after refeeding): 12 ± 8%; % Reduction food intake (vs vehicle) ([2]; 3 mpk oral, 2 hours after refeeding): 11 ± 5%; % Reduction food intake (vs vehicle) ([2]; 3 mpk oral, 4 hours after refeeding): 14 ± 7%; % Reduction food intake (vs vehicle) [2, 4]: 74 ± 7%; % Reduction food intake (vs vehicle) [2, 5]: 68 ± 5%; % Reduction food intake (vs vehicle) [2, 6]: 51 ± 4%; % Reduction food intake (vs vehicle) [2, 7]: 78 ± 14%; % Reduction food intake (vs vehicle) [2, 8]: 88 ± 8%; % Reduction food intake (vs vehicle) [2, 9]: 82 ± 7%; % Reduction food intake (vs vehicle) [2, 10]: 100 ± 11%; % Reduction food intake (vs vehicle) [2, 11]: 100 ± 5%; % Reduction food intake (vs vehicle) [2, 12]: 98 ± 4% |
| NCC1Oc2cc(F)cc(-c3ccccc3C(F)(F)F)c2O1 (stereo not shown) [Compound I-82, 1-[4-(2-Trifluoromethyl-phenyl)-6-fluoro-1,3-benzodioxol-2-yl]methanamine] | < 50 nM | 70% | < 100 nM |  |
| NCC1Oc2cc(F)cc(-c3ccccc3F)c2O1 (stereo not shown) [Compound I-83, 1-[4-(2-Fluoro-phenyl)-6-fluoro-1,3-benzodioxol-2-yl]methanamine] | < 50 nM | 70% | < 100 nM |  |
| NCC1Oc2cc(F)cc(-c3ccccc3Cl)c2O1 (stereo not shown) [Compound I-84, 1-[4-(2-Chloro-phenyl)-6-fluoro-1,3-benzodioxol-2-yl]methanamine] | < 50 nM | 80% | < 100 nM |  |
| NC[C@H]1Oc2cc(F)cc(-c3c(Cl)cccc3Cl)c2O1 [Compound I-85, 1-[(2S)-4-(2,6-dichlorophenyl)-6-fluoro-1,3-benzodioxol-2-yl]methanamine] | < 50 nM | 90% | < 100 nM |  |
| NC[C@@H]1Oc2cc(F)cc(-c3c(Cl)cccc3Cl)c2O1 [Compound I-86, 1-[(2R)-4-(2,6-dichlorophenyl)-6-fluoro-1,3-benzodioxol-2-yl]methanamine] | < 50 nM | 80% | > 500 nM |  |
| CNCC1Oc2cc(F)cc(-c3ccccc3Cl)c2O1 (stereo not shown) [Compound I-87, 1-[4-(2-Chlorophenyl)-6-fluoro-1,3-benzodioxol-2-yl]-N-methylmethanamine] | < 50 nM | 80% | < 100 nM |  |
| NCC1Oc2cc(Cl)cc(-c3ccccc3Cl)c2O1 (stereo not shown) [Compound I-90, [6-Chloro-4-(2-chloro-phenyl)-benzo[1,3]dioxol-2-yl]-methylamine] | < 50 nM | 80% | < 100 nM |  |
| Cc1ccccc1-c1cc(Cl)cc2c1OC(CN)O2 (stereo not shown) [Compound I-91, [6-Chloro-4-(2-methyl-phenyl)-benzo[1,3]dioxol-2-yl]-methylamine] | < 50 nM | 80% | < 100 nM |  |
| NCC1Oc2cc(Cl)cc(-c3ccc(Cl)cc3Cl)c2O1 (stereo not shown) [Compound I-96, [6-Chloro-4-(2,4-dichloro-phenyl)-benzo[1,3]dioxol-2-yl]-methylamine] | < 50 nM | 80% | < 100 nM |  |
| NCC1Oc2cc(Cl)cc(-c3cc(Cl)ccc3Cl)c2O1 (stereo not shown) [Compound I-98, [6-Chloro-4-(2,5-dichloro-phenyl)-benzo[1,3]dioxol-2-yl]-methylamine] | < 50 nM | 80% | < 100 nM |  |
| COc1cc(CC(C)N)c(OC)cc1I (stereo not shown) [[^125I] DOI] |  |  |  | Kd [3]: 0.4 nM |
